Results published in PMC11509018, “Evaluation of the Role of Tanshinone I in an In Vitro System of Charcot-Marie-Tooth Disease Type 2N” (International Journal of Molecular Sciences, 2024).

Target: T1, AlaRS R329H binding to Nrp1 (Homo sapiens, UniProt P49588, R329H)
T1 construct: expressed in transfected cells
T1 sequence (P49588 1-968 R329H): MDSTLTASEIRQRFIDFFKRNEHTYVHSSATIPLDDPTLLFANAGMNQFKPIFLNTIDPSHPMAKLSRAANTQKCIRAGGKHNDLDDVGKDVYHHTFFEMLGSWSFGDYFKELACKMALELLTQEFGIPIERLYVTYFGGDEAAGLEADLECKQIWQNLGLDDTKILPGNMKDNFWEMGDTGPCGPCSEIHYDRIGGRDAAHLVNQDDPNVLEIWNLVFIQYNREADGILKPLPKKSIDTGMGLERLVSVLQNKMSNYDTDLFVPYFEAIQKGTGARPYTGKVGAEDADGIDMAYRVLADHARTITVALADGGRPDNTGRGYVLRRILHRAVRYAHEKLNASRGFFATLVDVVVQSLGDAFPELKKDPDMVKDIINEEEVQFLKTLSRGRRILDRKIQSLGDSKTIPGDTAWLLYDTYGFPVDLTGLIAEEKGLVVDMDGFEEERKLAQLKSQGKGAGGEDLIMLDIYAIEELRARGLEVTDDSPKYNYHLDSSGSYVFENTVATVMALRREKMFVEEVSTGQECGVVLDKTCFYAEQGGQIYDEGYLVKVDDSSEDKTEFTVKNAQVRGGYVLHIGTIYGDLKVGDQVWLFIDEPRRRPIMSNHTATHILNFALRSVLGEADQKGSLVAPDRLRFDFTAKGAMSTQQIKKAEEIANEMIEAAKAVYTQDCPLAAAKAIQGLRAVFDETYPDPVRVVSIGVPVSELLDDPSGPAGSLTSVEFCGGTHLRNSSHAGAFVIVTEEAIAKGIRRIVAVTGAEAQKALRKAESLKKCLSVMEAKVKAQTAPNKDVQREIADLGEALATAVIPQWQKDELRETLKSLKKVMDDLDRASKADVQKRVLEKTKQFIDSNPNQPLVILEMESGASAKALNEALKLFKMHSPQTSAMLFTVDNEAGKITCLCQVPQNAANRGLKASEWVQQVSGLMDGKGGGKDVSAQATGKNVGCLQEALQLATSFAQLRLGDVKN
Experiment: Co-IP of HA-AlaRS mutant with Nrp1 in transfected cells
Format: cell-based
Conditions: 20 µM Tanshinone I for 24 h, ImageJ, average of three repeats

Mean density band (R329H), relative quantification of AlaRS mutant immunoprecipitated: 0.50
SMILES: Cc1coc2c1C(=O)C(=O)c1c-2ccc2c(C)cccc12 [Tanshinone I]
